# Results published in patent US20080269202A1, “Novel 2,3-benzodiazepine derivatives and their use as antipsychotic agents” (Teva Pharmaceutical Industries Ltd., priority 2007, published 2008).
# Read-outs that look alike come from different tables or passages of the source.
# Legend:
# [1] = system: PCP-induced hypermotility; test: PCP-induced hypermotility (motor activity meter) in mice; assay type: in vivo; settings: Mus musculus, read-out: PCP-hypermotility ED50 mg/kg po.
# Source text: (§1) Alterations in the mesocortical dopaminergic tract are thought to be responsible for the negative symptoms of schizophrenia (flattening of affect, poverty of speech, lack of volition and drive, loss of feeling, social withdrawal and decreased spontaneous movement). The best animal model of these symptoms is the behavioral changes induced by PCP (phencyclidine). The PCP-induced stereotypy and hypermotility was investigated in mice according to Ljungberg and Ungerstedt (Ljungberg, T., Ungerstedt, U. Pharmacol. Biochem. Behav., 1985, 23, 479,) and Jawitt (Jawitt, D. C. Amer. J. Psychiatry, 1991, 145, 1301). The stereotypy experiments were carried out in male CD1 mice weighing 20-25 g. The animals were starved for 16 hours before treatment without limitation of water availability. In the stereotypy studies, 30 min before treatment, mice were individually placed into small, transparent acrylic cages for habituation. Test substances were administered orally in a volume of 0.1 ml/10 g. 30 min later mice were treated with PCP with an intraperitoneal dose of 7 mg/kg. Stereotyped behavior was observed every 5th min for 60 min and scored from 0 to 4. The scores were summed individually, averaged and compared to the control group.
# The motor activity was measured in a 4-channel activity meter. The apparatus consisted of acrylic cages (40×40×32 cm) equipped with 16 pairs of infrared photocells. The photocells' beam, when broken, signaled a count, which was then recorded by a computer. A 5 mg/kg intraperitoneal dose of PCP was administered 5 min before the experiment. This dose of PCP induces 110-120% increase of the spontaneous motor activity. Test substances were administered orally 15 min before experiment, and mice were investigated individually in the experimental cages for 60 min. 10 mice/group were used. The total counts for each experimental group were compared to the vehicle treated control group.
# (§2) In both studies the ED50 values were calculated by the Litchfield-Wilcoxon's method (J. Pharmacol. Exp. Ther. 1949, 96, 49).
# Melatonin (MT2) receptor = target: T1, Melatonin (MT2) receptor (Homo sapiens, UniProt P49286); test: in vitro inhibition, melatonin (MT2) receptor; assay type: binding; settings: conc: 10 μM
# T1 sequence (P49286 1-362): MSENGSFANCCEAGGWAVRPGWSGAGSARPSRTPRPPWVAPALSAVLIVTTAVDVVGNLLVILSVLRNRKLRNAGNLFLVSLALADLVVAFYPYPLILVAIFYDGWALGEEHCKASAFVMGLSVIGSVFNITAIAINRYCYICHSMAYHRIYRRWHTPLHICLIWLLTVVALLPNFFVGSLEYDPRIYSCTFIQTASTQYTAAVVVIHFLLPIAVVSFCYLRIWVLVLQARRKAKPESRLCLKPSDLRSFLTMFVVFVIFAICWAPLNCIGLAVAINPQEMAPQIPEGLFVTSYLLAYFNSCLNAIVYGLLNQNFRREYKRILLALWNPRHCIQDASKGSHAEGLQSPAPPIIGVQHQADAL
# PCP-induced stereotypy = PCP-induced stereotypy in mice; assay type: in vivo, CD1 mice; settings: Mus musculus, read-out: PCP-stereotypy ED50 mg/kg po.
# Source text: as §1, §2
# [2] = target: T2, central dopaminergic receptors (Homo sapiens, UniProt P21917); test: in vitro binding profile to central dopaminergic receptors (Table 3); settings: human recombinant CHO-K1 cells, ligand [3H]spiperone; read-out: D4 binding
# T2 sequence (P21917 1-419): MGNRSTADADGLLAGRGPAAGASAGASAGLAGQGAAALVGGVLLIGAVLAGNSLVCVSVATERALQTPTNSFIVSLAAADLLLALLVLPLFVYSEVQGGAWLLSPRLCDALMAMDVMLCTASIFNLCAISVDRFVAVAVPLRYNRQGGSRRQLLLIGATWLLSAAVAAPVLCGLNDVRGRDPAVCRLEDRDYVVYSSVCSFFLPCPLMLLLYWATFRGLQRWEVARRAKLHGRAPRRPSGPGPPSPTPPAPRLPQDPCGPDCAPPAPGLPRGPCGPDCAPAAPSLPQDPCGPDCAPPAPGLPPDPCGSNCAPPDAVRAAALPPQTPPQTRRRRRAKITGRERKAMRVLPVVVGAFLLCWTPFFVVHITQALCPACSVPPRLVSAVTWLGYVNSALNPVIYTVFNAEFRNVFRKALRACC
# Source text: The new 2,3-benzodiazepine atypical antipsychotic agents of formula (I) of the present invention influence dopaminergic neurotransmission by a unique indirect fashion, differently from both the first and second generation antipsychotics. The in vitro binding profile of these compounds (Table 3) differs from that of the first generation antipsychotics which bind to dopaminergic receptors and second generation antipsychotics, representatives of which show affinity for dopaminergic, serotonergic, or adrenergic receptors.
# [3] = system: conditioned avoidance responses; test: conditioned avoidance: pole jumping test in rats; assay type: in vivo, Long-Evans rats
# Source text: For measuring the antipsychotic potential in a non-perturbed dopamine system the pole jumping assay was used (Cook, L., Catania, A. C. Fed. Proc. 1964, 23, 818.)
# This method is an active avoidance learning test. Long-Evans rats, weighing 250-450 g, were used in the experiments. Rats are placed in a box (25×25×25 cm) on a grid floor in the center of which there is a pole. After a latency period, light is turned on for a given time then the floor is electrified to deliver an unpleasant footshock. Rats may learn to avoid the shock by jumping up to grasp the pole. As soon as the rat jumps up the light and shock are turned off. Each light-on period lasted for 15 s, shock time for 30 s with an intertrial interval of 15 s. 30 such trials per day were repeated during the learning period until animals reach a minimum of 80% avoidance rate. During the experimental sessions 20 trials/day were run. Test substances were administered ip. in a volume of 0.25 ml/100 g body weight. Significances were calculated by Student's t test.
# catalepsy = catalepsy test in rats; assay type: in vivo, CDBR rats; settings: sum of 8 readings over 4 hours
# Source text: In order to investigate the potential side effect profile, the catalepsy test in rats has been carried out according to Costall and Naylor (Costall, B., Naylor, R. J. Arzneimittelforschung/Drug Res., 1973, 23, 674).
# Catalepsy is defined as a failure to correct an externally imposed, unusual posture over a prolonged time. Neuroleptics which have direct inhibitory action on the nigrostriatal dopamine system induce catalepsy. It may be reflected by the Parkinson-like extrapyramidal symptoms seen clinically with administration of classical antipsychotics. The experiments were carried out in male CDBR rats weighing 300-400 g. The volume of administration was 0.25 ml/100 g body weight. The animals were starved for 16 hours before treatment, water was delivered ad libitum. After intraperitoneal administration of the test substances, the forepaws of the rats were placed on a horizontal stainless steel bar elevated to 10 cm high, while the hind paws remained on a metal plate. The semi-automatic 5-channel catalepsy meter measured the time spent in this unusual posture by an electronic stop-clock. The catalepsy time was scored from 0 to 5 according to the time spent in the unusual posture. […] Means of groups were calculated.
# Adenosine transporter = test: in vitro inhibition, adenosine transporter; assay type: binding; settings: conc: 10 μM
# [4] = mice, po. 15 min before experiment, PCP 5 mg/kg ip
# [5] = mice, po. 30 min before PCP 7 mg/kg ip
Compound,"ED50 [1, 4] [mg/kg]",inhibition at 10 µM (Melatonin (MT2) receptor) [%],ED50 (PCP-induced stereotypy; [5]) [mg/kg],Ki [2] [µM],"MED (mg/kg ip), minimal effective dose (stat. sign.) [3] [mg/kg]",Catalapsy scores (catalepsy; dose 40 mg/kg ip),"Inhibition in %, Adenosine transporter (Adenosine transporter) [%]",melting point [°C],Catalapsy scores (catalepsy; dose 10 mg/kg ip),ED50 [1] [mg/kg],ED50 (PCP-induced stereotypy) [mg/kg]
COc1cc2c(cc1OC)C(c1ccc(N)c(C)c1)=NN(c1ncon1)[C@H](C)C2 [Example 104],0.73,80,1.12,> 10,15,40:0,96,–,–,–,–
COc1cc2c(cc1OC)C(c1ccc(N)c(C)c1)=NN(c1nncs1)[C@H](C)C2 [Example 110],1.4,95,2.38,> 10,2,–,94,143,10:0.375,–,–
CNC(=O)N1N=C(c2ccc(N)cc2)c2cc(OC)c(OC)cc2C[C@H]1C [Example 121],–,80,–,> 10,5,–,87,140 to 144,10:0,0.87,1.56
CNC(=O)N1N=C(c2ccc(N)c(C)c2)c2cc(OC)c(OC)cc2C[C@H]1C [Example 123],–,64,–,> 10,2,40:0,90,147,–,0.62,1.07
